Test results as given in PMC7696755 (2020).

Key:
[1] = tested on: AT-DNA (DNA, duplex) TATATATATATATATATATATATATATATATATATATATA; assay: UV/Vis absorption titration (302 nm, hypochromism); conditions: 137 mM NaCl, 2.7 mM KCl, PBS (10 mM phosphate), pH 7.4, room temperature, per base pair, 15 µM 8-MOP, intercalation, before irradiation
[2] = tested on: AT-DNA (DNA, duplex) TATATATATATATATATATATATATATATATATATATATA; assay: UV/Vis absorption titration (hypochromism); conditions: 137 mM NaCl, 2.7 mM KCl, PBS (10 mM phosphate), pH 7.4, room temperature, per base pair, intercalation, data not shown

| KD [1] [µM] | KD [2] [µM] | Compound |
| --- | --- | --- |
| 1100 |  | COc1c2occc2cc2ccc(=O)oc12 |
|  | 180 | COc1c2ccoc2cc2oc(=O)ccc12 |
